# Patent publication US8637550B2, “Heteroaryl diamide compounds useful as MMP-13 inhibitors” (Boehringer Ingelheim International GmbH, priority 2008, dated 2014)
# Target: MMP-13 (Homo sapiens, UniProt P45452)
# Assay: EnzoLyte 520 Generic MMP Assay Kit, 5-FAM/QXL520 FRET peptide substrate
# Format: biochemical
# Excerpt: The EnzoLyte™ 520 Generic MMP Assay Kit (AnaSpec Inc.) can detect the activity of several MMPs including MMP-1, 2, 3, 7, 8, 9, 13, and 14. This kit uses a 5-FAM/QXL™520 fluorescence resonance energy transfer (FRET) peptide as an MMP substrate.
row,SMILES,IC50 [nM]
1,CNC(=O)[C@@H](NC(=O)c1ccc(-c2cccc(CNC(=O)C(C)C)c2)o1)C1CCCCC1 [N-[(1S)-1-cyclohexyl-2-(methylamino)-2-oxoethyl]-5-(3-{[(2-methylpropanoyl)amino]methyl}phenyl)furan-2-carboxamide],157
2,CNC(=O)[C@@H](NC(=O)c1ccc(-c2cccc(CNC(=O)C3CC3)c2)o1)C1CCCCC1 [N-[(1S)-1-cyclohexyl-2-(methylamino)-2-oxoethyl]-5-(3-{[(cyclopropylcarbonyl)amino]methyl}phenyl)furan-2-carboxamide],397
3,CNC(=O)[C@@H](NC(=O)c1ccc(-c2cccc(CNC(=O)c3ccco3)c2)o1)C1CCCCC1 [N-[(1S)-1-cyclohexyl-2-(methylamino)-2-oxoethyl]-5-(3-{[(furan-2-ylcarbonyl)amino]methyl}phenyl)furan-2-carboxamide],75
4,CCc1ccc(-c2ccc(C(=O)N[C@H](C(=O)NC)C3CCCCC3)o2)cc1 [N-[(1S)-1-cyclohexyl-2-(methylamino)-2-oxoethyl]-5-(4-ethylphenyl)furan-2-carboxamide],315
5,CNC(=O)[C@@H](NC(=O)c1ccc(-c2ccc(C)cc2)o1)C1CCCCC1 [N-[(1S)-1-cyclohexyl-2-(methylamino)-2-oxoethyl]-5-(4-methylphenyl)furan-2-carboxamide],290
6,CCOc1ccc(-c2ccc(C(=O)N[C@H](C(=O)NC)C3CCCCC3)o2)nc1 [N-[(1S)-1-cyclohexyl-2-(methylamino)-2-oxoethyl]-5-(5-ethoxypyridin-2-yl)furan-2-carboxamide],32
7,"CNC(=O)[C@@H](NC(=O)c1ccc(-c2cccc(CNC(=O)c3cc(C)c(C)s3)c2)o1)C1CCCCC1 [N-[(1S)-1-cyclohexyl-2-(methylamino)-2-oxoethyl]-5-[3-({[(4,5-dimethylthiophen-2-yl)carbonyl]amino}methyl)phenyl]furan-2-carboxamide]",50
8,CNC(=O)[C@@H](NC(=O)c1ccc(-c2ccc(S(=O)(=O)NC)cc2)o1)C1CCCCC1 [N-[(1S)-1-cyclohexyl-2-(methylamino)-2-oxoethyl]-5-[4-(methylsulfamoyl)phenyl]furan-2-carboxamide],480
9,CNC(=O)[C@@H](NC(=O)c1ccc(-c2ccc(OCc3ccn[nH]3)cn2)o1)C1CCCCC1 [N-[(1S)-1-cyclohexyl-2-(methylamino)-2-oxoethyl]-5-[5-(1H-pyrazol-5-ylmethoxy)pyridin-2-yl]furan-2-carboxamide],6
10,CNC(=O)[C@@H](NC(=O)c1ccc(-c2ccc(OCc3cccnc3)cn2)o1)C1CCCCC1 [N-[(1S)-1-cyclohexyl-2-(methylamino)-2-oxoethyl]-5-[5-(pyridin-3-ylmethoxy)pyridin-2-yl]furan-2-carboxamide],2
11,CNC(=O)[C@@H](NC(=O)c1ccc(-c2ccc(NS(C)(=O)=O)cc2)o1)C1CCCCC1 [N-[(1S)-1-cyclohexyl-2-(methylamino)-2-oxoethyl]-5-{4-[(methylsulfonyl)amino]phenyl}furan-2-carboxamide],455
12,"CNC(=O)[C@@H](NC(=O)c1ccc(-c2ccc(OCc3cc(C)n(C)n3)cn2)o1)C1CCCCC1 [N-[(1S)-1-cyclohexyl-2-(methylamino)-2-oxoethyl]-5-{5-[(1,5-dimethyl-1H-pyrazol-3-yl)methoxy]pyridin-2-yl}furan-2-carboxamide]",4
13,CNC(=O)[C@@H](NC(=O)c1ccc(-c2ccc(OCc3cn(C)cn3)cn2)o1)C1CCCCC1 [N-[(1S)-1-cyclohexyl-2-(methylamino)-2-oxoethyl]-5-{5-[(1-methyl-1H-imidazol-4-yl)methoxy]pyridin-2-yl}furan-2-carboxamide],119
14,CNC(=O)[C@@H](NC(=O)c1ccc(-c2ccc(OCc3cncn3C)cn2)o1)C1CCCCC1 [N-[(1S)-1-cyclohexyl-2-(methylamino)-2-oxoethyl]-5-{5-[(1-methyl-1H-imidazol-5-yl)methoxy]pyridin-2-yl}furan-2-carboxamide],18
15,CNC(=O)[C@@H](NC(=O)c1ccc(-c2ccc(OCc3ccn(C)n3)cn2)o1)C1CCCCC1 [N-[(1S)-1-cyclohexyl-2-(methylamino)-2-oxoethyl]-5-{5-[(1-methyl-1H-pyrazol-3-yl)methoxy]pyridin-2-yl}furan-2-carboxamide],25
16,CNC(=O)[C@@H](NC(=O)c1ccc(-c2ccc(OCc3ccnn3C)cn2)o1)C1CCCCC1 [N-[(1S)-1-cyclohexyl-2-(methylamino)-2-oxoethyl]-5-{5-[(1-methyl-1H-pyrazol-5-yl)methoxy]pyridin-2-yl}furan-2-carboxamide],6

# Next, values leading:
row,IC50 [nM],SMILES
1,74,CNC(=O)[C@@H](NC(=O)c1ccc(-c2ccc([N+](=O)[O-])cn2)o1)C1CCCCC1 [N-[(1S)-1-cyclohexyl-2-(methylamino)-2-oxoethyl)-5-(5-nitropyridin-2-yl)furan-2-carboxamide]
2,205,CNC(=O)[C@@H](NC(=O)c1ccc(-c2cccc(CNC(=O)NC(C)C)c2)o1)C1CCCCC1 [N-[(1S)-1-cyclohexyl-2-(methylamino)-2-oxoethyl]-5-(3-{[(propan-2-ylcarbamoyl)amino]methyl}phenyl)furan-2-carboxamide]
3,270,CCOc1ccc(-c2ccc(C(=O)N[C@H](C(=O)NC)C3CCCCC3)o2)cc1 [N-[(1S)-1-cyclohexyl-2-(methylamino)-2-oxoethyl]-5-(4-ethoxyphenyl)furan-2-carboxamide]
4,423,CNC(=O)[C@@H](NC(=O)c1ccc(-c2ccc(CNC(=O)C3CC3)cc2)o1)C1CCCCC1 [N-[(1S)-1-cyclohexyl-2-(methylamino)-2-oxoethyl]-5-(4-{[(cyclopropylcarbonyl)amino]methyl}phenyl)furan-2-carboxamide]
5,330,CNC(=O)[C@@H](NC(=O)c1ccc(-c2cccc(CNC(=O)c3ccoc3C)c2)o1)C1CCCCC1 [N-[(1S)-1-cyclohexyl-2-(methylamino)-2-oxoethyl]-5-[3-({[(2-methylfuran-3-yl)carbonyl]amino}methyl)phenyl]furan-2-carboxamide]
6,25,CNC(=O)[C@@H](NC(=O)c1ccc(-c2ccc(-c3cnn(C)c3)cc2)o1)C1CCCCC1 [N-[(1S)-1-cyclohexyl-2-(methylamino)-2-oxoethyl]-5-[4-(1-methyl-1H-pyrazol-4-yl)phenyl]furan-2-carboxamide]
7,175,CNC(=O)[C@@H](NC(=O)c1ccc(-c2ccc(SC)cc2)o1)C1CCCCC1 [N-[(1S)-1-cyclohexyl-2-(methylamino)-2-oxoethyl]-5-[4-(methylsulfanyl)phenyl]furan-2-carboxamide]
8,21,CNC(=O)[C@@H](NC(=O)c1ccc(-c2ccc(OCc3ccccn3)cn2)o1)C1CCCCC1 [N-[(1S)-1-cyclohexyl-2-(methylamino)-2-oxoethyl]-5-[5-(pyridin-2-ylmethoxy)pyridin-2-yl]furan-2-carboxamide]
9,1,CNC(=O)[C@@H](NC(=O)c1ccc(-c2ccc(OCc3ccncc3)cn2)o1)C1CCCCC1 [N-[(1S)-1-cyclohexyl-2-(methylamino)-2-oxoethyl]-5-[5-(pyridin-4-ylmethoxy)pyridin-2-yl]furan-2-carboxamide]
10,19,CNC(=O)[C@@H](NC(=O)c1ccc(-c2ccc(OCc3c[nH]cn3)cn2)o1)C1CCCCC1 [N-[(1S)-1-cyclohexyl-2-(methylamino)-2-oxoethyl]-5-{5-(1H-imidazol-5-ylmethoxy)pyridin-2-yl]furan-2-carboxamide]
